Results on one substance are retold here after patent publication US20250295804A1, “PEG BASED ANTI-CD47/ANIT-PD-L1 BISPECIFIC ANTIBODY-DRUG CONJUGATE” (Shenzhen Enduring Biotech, Ltd., priority 2022, published 2025).

In one experiment the test system is BxPC-3 tumor cells. Nature of the experiment: FACS selective binding assay, tumor cells. The settings on record: BxPC-3, 30 min at 4° C. It counts as cell-based. The procedure: (§1) Briefly, freshly prepared red blood cells (from healthy donors) and BxPC-3 tumor cells (Procell, Wuhan, China) were used as target cells. […] The cells were washed at least twice with PBS and analyzed with flow cytometry after incubation.

In experiment [1] the test system is red blood cells (from healthy donors). Description: FACS selective binding assay, red blood cells. It counts as cell-based. The settings on record: 30 min at 4° C. How it is done: as §1

Consider “Hu5F9-G4: anti-CD47 antibody, expressed and prepared in house [reference compound]”, for which the entries for the “binding to target cells” value (in the experiment with BxPC-3 tumor cells; in experiment [1]) were “specifically bind” and “binds with high affinity”, respectively.
